Results as given in patent US6734168B2, “Endothelial monocyte activating polypeptide II: a mediator which activates host response” (The Trustees of Columbia University in the City of New York, priority 1993, dated 2004).
No end group written: not given here.

How the values were obtained:
human MPs [1] = experiment: Radioligand binding of 125I-[…] to MPs; conditions: for Competition for binding of 125I-RIGRIVTAKY to MPs by unlabelled peptide/protein: excess / increasing concentrations of unlabelled competitor
Experimental: Radioligand binding studies were performed on human MPs plated in 96-well plates (5-6×10^4 cells/well). Cells were washed twice with Hanks balanced salt solution, and then Dulbecco's Modified Eagle Medium containing HEPES (25 mM; pH 7.4), penicillin/streptomycin (50 U/ml; 50 μg/ml), and bovine serum albumin-fatty acid free (0.5%; Sigma) were added (0.1 ml/well). Cultures were incubated at 4° C. for 2 hrs with ^125I-[…] alone or in the presence of unlabelled peptide/protein. Each well was washed four times over a period of 20 sec, and cell-associated radioactivity was eluted by an acidic buffer (HCl, 0.1 M, pH 2; NaCl, 0.1 M) at 4° C. for 5 min. During the elution period, there was no detachment of cells from the growth substrate. The conditions for incubation and washing used in the binding studies shown in FIG. 3 (2 hrs at 4° C.) were […] to allow binding of ^125I-[…] to reach an apparent maximum, even at the lowest tracer concentrations, and to remove unbound material by washing quickly so that <10% of the cell-bound radioactivity dissociated.

ECs = experiment: Pilot binding studies using ECs; conditions: data not shown
human PMNs [2] = experiment: PMN migration in microchemotaxis chambers; assay type: cell-based; set-up: key to PMN MIGRATION: (+) indicates the peptide induced PMN migration; (−) indicates the peptide did not induce PMN migration above levels seen in controls which contained no chemotactic stimulus; conditions: for PMN MIGRATION: peptides 100 pM in each case; for Induction of PMN migration (chemotaxis): microchemotaxis chamber, 45 min at 37° C.
Experimental: (§1) Assessment of mononuclear phagocyte (mononuclears) and polymorphonuclear leukocyte (PMN) migration. Human peripheral blood monocytes were isolated from the blood of normal healthy volunteers (30). Blood was centrifuged on Hisopaque 1077 (Sigma, St. Louis, Mo.), the mononuclear fraction was obtained, washed twice in Earle's balanced salt solution, resuspended in RPMI 1640 containing human serum (10%; Gemini, Calabasas, Calif.), plated on tissue culture dishes and incubated at 37° C. for 1-2 hrs. Nonadherent cells were removed by washing the plate twice with balanced salt solution, and adherent cells were harvested by incubation with calcium-magnesium free buffer containing EDTA (2 mM) for 15 min at 37° C., followed by extensive washing. PMNs were prepared by centrifugation over Hisopaque 1119 as per the manufacturer's protocol (Sigma). Chemotaxis assays were performed in microchemotaxis chamber (NeuroProbe, Bethesda, Md.) containing Nucleopore polycarbonate membranes (5 μm; Nucleopore, Pleasonton, Calif.). Mononuclears or PMNs were suspended in RPMI 1640 containing fetal bovine serum (1%) and 10^4 cells were added per well to the upper chamber. The chemotactic stimulus was added to the indicated chamber, and assays were performed in quadruplicate over a 3 hr or 45 min incubation period at 37° C., with mononuclear cells or PMNs, respectively, after which non-migrating cells were removed, membranes were fixed in methanol, migrating cells were visualized with Wright's stain. Cells in nine high-power fields were counted, and the mean and standard error of the mean (SEM) were determined.
(§2) Cell migration was studied by adding MPs or PMNs (10^4 cells/well) resuspended in RPMI 1640 with fetal calf serum (1%; Gemini) to the upper wells of a microchemotaxis chamber (Neuro Probe, Bethesda, Md.) containing Nucleopore polycarbonate membranes (5 μm, Nucleopore, Pleasanton Calif.), as described (7,29-30). The chemotactic stimulus was placed in the upper or lower chamber, as indicated, and cells were allowed to migrate for 3 hrs (for MPs) or 45 min (for PMNs) at 37° C. Following removal of non-migrating cells, membranes were fixed in methanol and migrating cells were visualized with Wright's stain. Assays were performed in quadruplicate, and cells were counted in nine high-power fields in each case (mean±SEM is shown in the figures).
(§3) Migration of PMNs and MPs—Migration was studied using cells (10^4 and 10^3 cells/well form PMNs and MPs, respectively) resuspended in RPMI 1640 with fetal calf serum (1%) added to the upper wells of a microchemotaxis chamber (Neuro Probe, Bethesda, Md.) containing Nucleopore polycarbonate membranes (5 um, Nucleopor, Pleasanton, Calif.), as described (13, 22, 35). The stimulus was placed in the upper or lower chamber, as indicated, and the cells were allowed to migrate for 3 h (for MPs) or 45 min (for PMNs) at 37° C. Following removal of nonmigrating cells, membranes were fixed in methanol, and migrating cells were visualized with Wright's stain. Assays were performed in quadruplicate, and cells were counted in […] high-power fields in each case (mean±S.E. is shown in the figures).

human PMNs [3] = experiment: [Ca2+]i measurement in PMNs (fura-2); assay type: cell-based
Experimental: (§4) [Ca^2+1]i measurements. PMNs or MPs (2×10^7 cells in each case) were incubated with fura-2 AM (1 μM) and pluronic detergent (0.02%) for 12 min at room temperature, diluted sixfold, and incubated for a further 30 min at room temperature to allow for complete hydrolysis of the dye. Cells were then resuspended in HEPES-buffered saline at 5×10^5 cells/ml (32). For experiments using MPs, sulfinpyrazone (0.5 mM) was included at all steps to minimize both dye sequestration into intracellular organelles and dye efflux (33). Fluorescence of fura-2 was monitored at 37° C. in a thermostatically-controlled cuvette installed in a Perkin Elmer Model 650-40 fluorescense spectrophotometer. Calibration of [Ca^2+]i was performed as described (34).
(§5) For determination of [Ca^2+] in PMSs and MPs, cells (2×10^7 in each case) were incubated with fura-2 AM (1 um) and pluronci detergent (0.02%) at room temperature, diluted 6-fold, and incubated for a further 30 min at room temperature to allow for complete hydrolysis of the dye. Cells were then resuspended in HEPES-buffered saline at 5×10^5 cells/ml (32). For MPs, sulfinpyrazone (0.5 mM) was included at all steps to minimize both dye sequestration into intracellular organelles and dye efflux (33). Fluorescence of fura-2 was monitored at 37° C. in a thermostatically controlled cuvette installed in a Perkin Elmer model 650-40 fluorescence spectrophotometer. Calibration of [Ca^2+] was performed as described (34).

[4] = tested on: human peripheral blood monocytes (MPs); experiment: Mononuclear phagocyte migration in microchemotaxis chambers; assay type: cell-based; conditions: microchemotaxis chamber, 3 hrs at 37° C.
Experimental: as §1, §2, §3

human MPs [5] = experiment: [Ca2+]i measurement in MPs (fura-2); assay type: cell-based
Experimental: as §4
as §5, with “Calibration of [Ca^2+] was performed as described (34).” left out

Substance	PMN MIGRATION (human PMNs [2])	Competition for binding of 125I-RIGRIVTAKY to MPs by unlabelled peptide/protein (human MPs [1])	other results
125I-RIGRIVTAKY (also: 125I label)			N, binding sites (human MPs [1]; 4° C.): 8.3±1.2×10^3 molecules of peptide bound per cell; Kd (human MPs [1]; read-out: Kd of specific binding to MPs (one-site model), 4° C.): 0.19 ± 0.11 nM; Specific binding to ECs (ECs): specific binding
AIGRIVT	+		
ASRLDL	−	had no effect	Rise in [Ca2+]i in PMNs (human PMNs [3]): inactive
ASRLDLRIGC*IVTAK	+		
ASRLDLRIGRIVTAK	+		
ASRLDLRTGRIVT		blocked	
AVLPRSAKELRL [peptide derived from the ELR-region of IL-8, residues #23-34, reference compound]			Induction of MP (mononuclear cell) migration (chemotaxis) [4]: inactive; Induction of PMN migration (chemotaxis) (human PMNs [2]): no chemotaxis was observed
CRAQTMANSGIK [peptide derived from the C-terminal portion of EMAP II, reference compound]		had no effect	Induction of MP (mononuclear cell) migration (chemotaxis) [4]: inactive; Induction of PMN migration (chemotaxis) (human PMNs [2]): no chemotaxis was observed
IRKDMDKVETFLRIVQ [irrelevant peptide derived from growth hormone, reference compound]			Induction of MP (mononuclear cell) migration (chemotaxis) [4]: inactive; Induction of PMN migration (chemotaxis) (human PMNs [2]): no chemotaxis was observed
LRIGRIVTAKY	+		
RICRIVTAK		inhibition	
RIGRAVT	−	had no effect	
RIGRIIT	+		
RIGRIVT	+	blocked	Rise in [Ca2+]i in PMNs (human PMNs [3]): did not promote enhanced [Ca^2+]i; Rise in [Ca2+]i in MPs (human MPs [5]): insufficient to promote increases in [Ca^2+]i
RIGRIVTAKY	+		Rise in [Ca2+]i in PMNs (human PMNs [3]): did not promote enhanced [Ca^2+]i
